# Measured values taken from patent US20170107212A1, “NOVEL COMPOUNDS” (Bayer Pharma Aktiengesellschaft, priority 2014, published 2017).
# Where a name gives a salt, the structure may show the parent alone.
# What was measured:
# HCT116 FOPFlash = assay: Control reporter assay, HCT116 FOP control vector (non-functional TCF elements), luciferase expression; assay type: cell-based; details: HCT116 FOP control reporter cells, 36 hours incubation, dilution series 50 μM to 15 nM
# Procedure: In a parallel approach, HCT116 cells were cotransfected with the FOP control vector and pcDNA3. The FOP vector is identical to the TOP construct, but it contains instead of functional TCF elements a randomized, non-functional sequence. For this transfection a stable transfected cell line was generated as well.
# (§1) In preparation of the assay, the two cell lines were plated 24 hours before at 10000 cells per well of a 384 micro titre plate (MTP) in 30 μL growth medium. Selective inhibitory activity for small molecules on the mutated Wnt pathway was determined after parallel incubation of both (TOP and FOP) HCT116 reporter cell lines with a compound dilution series from 50 μM to 15 nM in steps of 3.16-fold dilutions in CAFTY buffer (130 mM NaCl, 5 mM KCl, 20 mM HEPES, 1 mM MgCl2, 5 mM NaHCO3, pH 7.4) containing 2 mM Ca^2+ and 0.01% BSA. The compounds were thereby serially prediluted in 100% DMSO and thereafter in addition 50 fold into the CAFTY compound dilution buffer (described above). From this dilution 10 μL were added to the cells in 30 μL growth medium and incubated for 36 hours at 37° C. and 5% CO2. Thereafter luciferase assay buffer (1:1 mixture of luciferase substrate buffer (20 mM Tricine, 2.67 mM MgSO4, 0.1 mM EDTA, 4 mM DTT, 270 μM Coenzyme A, 470 μM Luciferin, 530 μM ATP, ph adjusted to pH 7.8 with a sufficient volume of 5M NaOH) and Triton buffer (30 mL Triton X-100, 115 mL glycerol, 308 mg Dithiothreitol, 4.45 g Na2HPO4.2H2O, 3.03 g TRIS HCl, ad 1 l H20, pH 7.8) was added as equal volume to the compound solution on the cells to determine luciferase expression as a measure of Wnt signaling activity in a luminometer.
# [1] = test system: constitutive active colorectal cancer cell (CRC) Wnt pathway, HCT116 TOPFlash; assay: Cellular reporter assay, HCT116 Super TopFlash (constitutive active Wnt pathway), luciferase expression; assay type: cell-based; details: HCT116 Super TopFlash reporter cells, 36 hours incubation, dilution series 50 μM to 15 nM
# Procedure: In order to discover and characterize small molecules which inhibit the constitutive active colorectal cancer cell (CRC) Wnt pathway, a cellular reporter assay was employed. The corresponding assay cell was generated by transfection of the colorectal cancer cell line HCT116 (ATCC, #CCL-247) with the Super TopFlash vector (Morin, Science 275, 1997, 1787-1790; Molenaar et al., Cell 86 (3), 1996, 391-399). The HCT116 cell line is cultivated at 37° C. and 5% CO2 in DMEM/F-12 (Life Technologies, #11320-074), supplemented with 2 mM glutamine, 20 mM HEPES, 1.4 mM pyruvate, 0.15% Na-bicarbonate and 10% foetal bovine serum (GIBCO, #10270), this cancer cell line is pathophysiological relevant since it carries a deletion of position S45 in the β-catenin gene, leading to constitutive active Wnt signaling. Stable transfectants were generated by cotransfection with pcDNA3 and selection of stable transfected cells with 1 mg/ml G418.
# as §1
Compound,"IC50 (HCT116 FOPFlash; Homo sapiens, HCT-116, 36 h) [µM]","IC50 ([1]; Homo sapiens, HCT-116, 36 h) [nM]",IC50 (HCT116 FOPFlash) [µM],IC50 [1] [nM]
"O=C(CN1CCOCC1)Nc1cc(C(=O)Nc2ccc(-c3cncnc3)cn2)ccc1OC(F)(F)F [Example 1, 3-[(morpholin-4-ylacetyl)amino]-N-[5-(pyrimidin-5-yl)pyridin-2-yl]-4-(trifluoromethoxy)benzamide]",≥ 50,145,–,–
"O=C(Nc1nnc(-c2cccnc2)s1)c1ccc(OC(F)(F)F)c(NC(=O)C2(N3CCOCC3)CC2)c1 [Example 2, 3-({[1-(morpholin-4-yl)cyclopropyl]carbonyl}amino)-N-[5-(pyridin-3-yl)-1,3,4-thiadiazol-2-yl]-4-(trifluoromethoxy)benzamide]",≥ 50,282,–,–
"CC(C(=O)Nc1cc(C(=O)Nc2ccc(-c3ccc(N)nc3)nc2)ccc1OC(F)(F)F)N1CCOCC1 (stereo not drawn) [Example 3, N-(6′-amino-2,3′-bipyridin-5-yl)-3-{[2-(morpholin-4-yl)propanoyl]amino}-4-(trifluoromethoxy)benzamide]",≥ 50,20.9,–,–
"CC(C(=O)Nc1cc(C(=O)Nc2ccc(-c3cncnc3)nc2)ccc1OC(F)(F)F)N1CCOCC1 (stereo not drawn) [Example 4, 3-{[2-(morpholin-4-yl)propanoyl]amino}-N-[6-(pyrimidin-5-yl)pyridin-3-yl]-4-(trifluoromethoxy)benzamide]",≥ 50,19.5,–,–
"CC(C(=O)Nc1cc(C(=O)Nc2ccc(-c3cccnc3F)nc2)ccc1OC(F)(F)F)N1CCOCC1 (stereo not drawn) [Example 5, N-(2′-fluoro-2,3′-bipyridin-5-yl)-3-{[2-(morpholin-4-yl)propanoyl]amino}-4-(trifluoromethoxy)benzamide]",≥ 50,16.5,–,–
CC(C(=O)Nc1cc(C(=O)Nc2ccc(-c3cnc(N)nc3)nc2)ccc1OC(F)(F)F)N1CCOCC1 (stereo not drawn) [Example 6],≥ 50,19,–,–
"COc1ncc(-c2ccc(NC(=O)c3ccc(OC(F)(F)F)c(NC(=O)C(C)N4CCOCC4)c3)cn2)cn1 (stereo not drawn) [Example 7, N-[6-(2-methoxypyrimidin-5-yl)pyridin-3-yl]-3-{[2-(morpholin-4-yl)propanoyl]amino}-4-(trifluoromethoxy)benzamide]",≥ 50,115,–,–
"CC(C(=O)Nc1cc(C(=O)Nc2ccc(-c3cccnc3)nc2)ccc1OC(F)(F)F)N1CCOCC1 (stereo not drawn) [Example 8, N-(2,3′-bipyridin-5-yl)-3-{[2-(morpholin-4-yl)propanoyl]amino}-4-(trifluoromethoxy)benzamide]",≥ 50,11.6,–,–
"CN1CCN(CC(=O)Nc2cc(C(=O)Nc3nnc(-c4ccccn4)s3)ccc2OC(F)(F)F)CC1 [Example 9, 3-{[(4-methylpiperazin-1-yl)acetyl]amino}-N-[5-(pyridin-2-yl)-1,3,4-thiadiazol-2-yl]-4-(trifluoromethoxy)benzamide hydrochloride]",22.5,514,–,–
"CN1CCN(CC(=O)Nc2cc(C(=O)Nc3ccc(-c4ccc(N)nc4)cn3)ccc2OC(F)(F)F)CC1 [Example 10, N-(6′-amino-3,3′-bipyridin-6-yl)-3-{[(4-methylpiperazin-1-yl)acetyl]amino}-4-(trifluoromethoxy)benzamide]",≥ 50,58,–,–
"CN1CCN(CC(=O)Nc2cc(C(=O)Nc3ccc(-c4cccnc4)cn3)ccc2OC(F)(F)F)CC1 [Example 11, N-(3,3′-bipyridin-6-yl)-3-{[(4-methylpiperazin-1-yl)acetyl]amino}-4-(trifluoromethoxy)benzamide]",≥ 50,18.8,–,–
"CN1CCN(CC(=O)Nc2cc(C(=O)Nc3ccc(-c4cnc(N)nc4)cn3)ccc2OC(F)(F)F)CC1 [Example 12, N-[5-(2-aminopyrimidin-5-yl)pyridin-2-yl]-3-{[(4-methylpiperazin-1-yl)acetyl]amino}-4-(trifluoromethoxy)benzamide]",≥ 50,132,–,–
"CN1CCN(CC(=O)Nc2cc(C(=O)Nc3ccc(-c4cccnc4F)cn3)ccc2OC(F)(F)F)CC1 [Example 13, N-(2′-fluoro-3,3′-bipyridin-6-yl)-3-{[(4-methylpiperazin-1-yl)acetyl]amino}-4-(trifluoromethoxy)benzamide]",≥ 50,41.5,–,–
"O=C(CN1CCOCC1)Nc1cc(C(=O)Nc2ccc(-c3cccnc3)cn2)ccc1OC(F)(F)F [Example 14, N-(3,3′-bipyridin-6-yl)-3-[(morpholin-4-ylacetyl)amino]-4-(trifluoromethoxy)benzamide]",≥ 50,42.3,–,–
"Nc1ccc(-c2ccc(NC(=O)c3ccc(OC(F)(F)F)c(NC(=O)CN4CCOCC4)c3)nc2)cn1 [Example 15, N-(6′-amino-3,3′-bipyridin-6-yl)-3-[(morpholin-4-ylacetyl)amino]-4-(trifluoromethoxy)benzamide]",≥ 50,81.5,–,–
"O=C(CN1CCOCC1)Nc1cc(C(=O)Nc2ccc(-c3cccnc3F)cn2)ccc1OC(F)(F)F [Example 16, N-(2′-fluoro-3,3′-bipyridin-6-yl)-3-[(morpholin-4-ylacetyl)amino]-4-(trifluoromethoxy)benzamide]",≥ 50,103,–,–
"Nc1ncc(-c2ccc(NC(=O)c3ccc(OC(F)(F)F)c(NC(=O)CN4CCOCC4)c3)nc2)cn1 [Example 17, N-[5-(2-aminopyrimidin-5-yl)pyridin-2-yl]-3-[(morpholin-4-ylacetyl)amino]-4-(trifluoromethoxy)benzamide]",≥ 50,120,–,–
"CN1CCN(C2(C(=O)Nc3cc(C(=O)Nc4nnc(-c5ccccn5)s4)ccc3OC(F)(F)F)CC2)CC1 [Example 18, 3-({[1-(4-methylpiperazin-1-yl)cyclopropyl]carbonyl}amino)-N-[5-(pyridin-2-yl)-1,3,4-thiadiazol-2-yl]-4-(trifluoromethoxy)benzamide hydrochloride]",10.3,106,–,–
"CN1CCN(C2(C(=O)Nc3cc(C(=O)Nc4nnc(-c5cccnc5)s4)ccc3OC(F)(F)F)CC2)CC1 [Example 19, 3-({[1-(4-methylpiperazin-1-yl)cyclopropyl]carbonyl}amino)-N-[5-(pyridin-3-yl)-1,3,4-thiadiazol-2-yl]-4-(trifluoromethoxy)benzamide hydrochloride]",≥ 50,105,–,–
"CN1CCN(CC(=O)Nc2cc(C(=O)Nc3nnc(-c4cccnc4)s3)ccc2OC(F)(F)F)CC1 [Example 20, 3-{[(4-methylpiperazin-1-yl)acetyl]amino}-N-[5-(pyridin-3-yl)-1,3,4-thiadiazol-2-yl]-4-(trifluoromethoxy)benzamide hydrochloride]",40,167,–,–
"CN1CCN(CC(=O)Nc2cc(C(=O)Nc3nnc(-c4cccnc4)s3)ccc2OC(F)(F)F)CC1 [Example 21, 3-{[(4-methylpiperazin-1-yl)acetyl]amino}-N-[5-(pyridin-3-yl)-1,3,4-thiadiazol-2-yl]-4-(trifluoromethoxy)benzamide]",–,–,≥ 50,315
"CC(C(=O)Nc1cc(C(=O)Nc2ccc(-c3ccncc3)nc2)ccc1OC(F)(F)F)N1CCOCC1 (stereo not drawn) [Example 22, N-(2,4′-bipyridin-5-yl)-3-{[2-(morpholin-4-yl)propanoyl]amino}-4-(trifluoromethoxy)benzamide]",≥ 50,285,–,–
"CC(C(=O)Nc1cc(C(=O)Nc2ccc(-c3ccc(F)nc3)nc2)ccc1OC(F)(F)F)N1CCOCC1 (stereo not drawn) [Example 23, N-(6′-fluoro-2,3′-bipyridin-5-yl)-3-{[2-(morpholin-4-yl)propanoyl]amino}-4-(trifluoromethoxy)benzamide]",≥ 50,53.5,–,–
"COc1ccc(NC(=O)c2ccc(-c3cccs3)nc2)cc1NC(=O)CN1CCOCC1 [Example 24, N-{4-methoxy-3-[(morpholin-4-ylacetyl)amino]phenyl}-6-(thiophen-2-yl)pyridine-3-carboxamide]",≥ 50,4000,–,–
